# In ChEMBL document CHEMBL1201862, “PubChem BioAssay data set” (2004):
#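 48-hour exposure; five concentrations; linearly interpolated endpoints. GI50 = concentration required for 50% inhibition of growth.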 Calls of active or inactive are those of the source. Rule as the data show it: active = GI50 up to about 1.1 µM and inactive = higher.
# What was measured:
# Experiment in all cases: inhibition of tumour cell growth, NCI panel, 48 h
# EKVX = test system: EKVX
# MCF7 = test system: MCF7
# OVCAR-8 = test system: OVCAR-8
# NCI-H226 = test system: NCI-H226
# COLO 205 = test system: COLO 205
# MOLT-4 = test system: MOLT-4
# T47D = test system: T47D
# IGROV-1 = test system: IGROV-1
# MDA-N = test system: MDA-N
# M14 = test system: M14
# RXF 393 = test system: RXF 393
# OVCAR-4 = test system: OVCAR-4
# Hs-578T = test system: Hs-578T
# HOP-62 = test system: HOP-62
# RPMI-8226 = test system: RPMI-8226
# SN12C = test system: SN12C
# SK-MEL-5 = test system: SK-MEL-5
# SNB-75 = test system: SNB-75
# NCI-H23 = test system: NCI-H23
# SR = test system: SR
SMILES,GI50 (EKVX),GI50 (MCF7),GI50 (OVCAR-8),GI50 (NCI-H226),GI50 (COLO 205),GI50 (MOLT-4),GI50 (T47D),GI50 (IGROV-1),GI50 (MDA-N),GI50 (M14),GI50 (RXF 393),GI50 (OVCAR-4),GI50 (Hs-578T),GI50 (HOP-62),GI50 (RPMI-8226),GI50 (SN12C),GI50 (SK-MEL-5),GI50 (SNB-75),GI50 (NCI-H23),GI50 (SR)
Clc1ccc(OCc2nnc(CCCCCCCCc3nnc(COc4ccc(Cl)cc4)n3Nc3ccccc3)n2Nc2ccccc2)cc1,12.9 µM (inactive),3.75 µM (inactive),30.4 µM (inactive),9.62 µM (inactive),0.318 µM (active),12.3 µM (inactive),22.1 µM (inactive),7.23 µM (inactive),1.6 µM (inactive),2.08 µM (inactive),21.8 µM (inactive),15.7 µM (inactive),22.9 µM (inactive),1.08 µM (active),0.21 µM (active),18.2 µM (inactive),0.463 µM (active),52.4 µM (inactive),18.2 µM (inactive),–
c1csc(-c2cc(-c3ccsc3)c(-c3cccs3)s2)c1,16 µM (inactive),6.75 µM (inactive),> 100 µM (inactive),> 100 µM (inactive),23.1 µM (inactive),30.1 µM (inactive),2.7 µM (inactive),–,32 µM (inactive),56.1 µM (inactive),49.8 µM (inactive),> 100 µM (inactive),> 100 µM (inactive),> 100 µM (inactive),–,> 100 µM (inactive),53.6 µM (inactive),17.9 µM (inactive),58.7 µM (inactive),36.9 µM (inactive)
Fc1ccc(NCn2nc(COc3ccccc3Cl)n(/N=C/c3ccc(-c4ccc(Cl)cc4Cl)o3)c2=S)cc1Cl,> 100 µM (inactive),26.7 µM (inactive),36.1 µM (inactive),83.8 µM (inactive),–,16.1 µM (inactive),27.7 µM (inactive),29.2 µM (inactive),38.5 µM (inactive),28.5 µM (inactive),21.5 µM (inactive),53.2 µM (inactive),82.6 µM (inactive),52.4 µM (inactive),22.3 µM (inactive),–,7.62 µM (inactive),–,27.4 µM (inactive),16.6 µM (inactive)
C/C(=N\NC1=NCCN1)c1cn(C2=NCCN2)nc1C,> 100 µM (inactive),> 100 µM (inactive),> 100 µM (inactive),> 100 µM (inactive),> 100 µM (inactive),–,> 100 µM (inactive),> 100 µM (inactive),> 100 µM (inactive),> 100 µM (inactive),72.1 µM (inactive),> 100 µM (inactive),> 100 µM (inactive),> 100 µM (inactive),> 100 µM (inactive),> 100 µM (inactive),> 100 µM (inactive),77.6 µM (inactive),> 100 µM (inactive),–
O=C1C[C@@H](Sc2ccccc2)C2(OCCO2)[C@H]2ON3CCC[C@@H]3[C@@H]12,–,3.33 µM (inactive),2.03 µM (inactive),7.67 µM (inactive),2.48 µM (inactive),1.04 µM (active),2.83 µM (inactive),2.24 µM (inactive),2.7 µM (inactive),2.12 µM (inactive),–,5 µM (inactive),2.77 µM (inactive),3.16 µM (inactive),2.85 µM (inactive),2.33 µM (inactive),–,–,4.61 µM (inactive),1.3 µM (inactive)
Nc1ccc(Nc2c3ccccc3nc3ccccc23)cc1,8.51 µM (inactive),2.2 µM (inactive),3.31 µM (inactive),1.38 µM (inactive),3.78 µM (inactive),0.568 µM (active),6.49 µM (inactive),6.65 µM (inactive),5.12 µM (inactive),6.95 µM (inactive),> 10 µM (inactive),3.83 µM (inactive),7.55 µM (inactive),4.32 µM (inactive),4.49 µM (inactive),2.88 µM (inactive),3.86 µM (inactive),–,3.25 µM (inactive),> 10 µM (inactive)
CC(C)c1c(O)c(O)c2c(c1O)C(=O)C(O)=C1C(C)(C)CCC[C@@]12C,2.9 µM (inactive),3.13 µM (inactive),2.71 µM (inactive),3.01 µM (inactive),1.97 µM (inactive),2.96 µM (inactive),3.24 µM (inactive),3.73 µM (inactive),–,5.47 µM (inactive),2.86 µM (inactive),3.26 µM (inactive),4.31 µM (inactive),8.61 µM (inactive),1.26 µM (inactive),3.23 µM (inactive),2.6 µM (inactive),3.05 µM (inactive),2.92 µM (inactive),4.05 µM (inactive)
O=C(O)CC1NC(/C(=C/c2ccccc2O)NC(=O)c2ccccc2)OC1=O (stereo not given),> 33.7 µM (inactive),3.97 µM (inactive),27.3 µM (inactive),17 µM (inactive),> 100 µM (inactive),> 100 µM (inactive),11.7 µM (inactive),14.3 µM (inactive),29.4 µM (inactive),> 78 µM (inactive),29 µM (inactive),7.59 µM (inactive),24.7 µM (inactive),14 µM (inactive),> 100 µM (inactive),48.8 µM (inactive),> 73.5 µM (inactive),7.21 µM (inactive),26.1 µM (inactive),–
